Read-outs that look alike come from different tables or passages of the source.

The conditions of data set [1]: 12 participants, 5 days rifampicin, 100 mg oral tramadol; cited from earlier work.
The conditions of data set [2]: cited from earlier work.
The subject of data set [3] is healthy participants. The experiment in a line: Abuse liability visual analog scales. In kind it is in vivo, human. The note with it: trial A, n = 43, 0–100 mm VAS after seventh dose, M (SD).
The conditions of data set [4]: for (+)-M1 Cssmax 90% CI (bioequivalence ratio desmetramadol vs tramadol) / (+)-M1 Cssmin 90% CI (bioequivalence ratio desmetramadol vs tramadol) / (−)-M1 Cssmax 90% CI (bioequivalence ratio desmetramadol vs tramadol) / (−)-M1 Cssmin 90% CI (bioequivalence ratio desmetramadol vs tramadol): bioequivalent if within .80 to 1.25.
For another data set, the system named is cold-induced pain. The experiment in a line: Cold pressor test. In kind it is in vivo, human.
Data set [5] has as its system healthy participants. In words: Drug-related adverse events.
In the next data set the test system is pupil diameter. The experiment in a line: Pupillometry. In kind it is in vivo, human. The settings on record: trial A; for Pupil diameter, predose: before first dose of segment.
Data set [6] relates to healthy participants. The experiment in a line: Respiratory rate. The note with it: trial B (with paroxetine), n = 60; MPD (SD).
The conditions of data set [7]: in vivo, po; cited from earlier work.
The target of another data set is μ-opioid receptor. The note with it: read-out: μ-opioid receptor affinity (Ki); in vitro, racemic M5; cited from earlier work.
Data set [8] deals with serotonin reuptake transporter. The note with it: cited from earlier work.
Data set [9] has as its target norepinephrine transporter. The note with it: read-out: norepinephrine transporter Ki; in vitro functional potency; cited from earlier work.
Setting [10] is: trial A, listed as desmetramadol.

Turning to `CN(C)C[C@H]1CCCC[C@]1(O)c1cccc(O)c1` [Desmetramadol, O-desmethyltramadol], in data set [1], the “decrease of AUC by rifampicin induction” value is 54% and the “increase of M1 formation rate by rifampicin induction” value is 12%. In addition, the “lethal M1 blood concentrations exceed therapeutic levels” value in data set [2] is at most 50 fold. Moreover, in the data set on healthy participants [3], the Drug liking-disliking is 47 (25) mm, the “Strength of drug effect” value is recorded as 29 (28) mm and the Take drug again is listed as 43 (26) mm. Moreover, the “Strength of drug effect” value in the data set on healthy participants [3] (listed as desmetramadol) was 29 [28] mm. For the same compound, in data set [4] (steady state plasma), the “change of (+)-M1 Cssmax, trial B (paroxetine) compared with trial A” value stood at 41% and the “change of (+)-M1 Cssmin, trial B (paroxetine) compared with trial A” value was found to be 46%. In addition, in [4] (trial A), the “(−)-M1 Cssmin and Cssmax lower for desmetramadol compared with tramadol” value amounted to 30%; the “(+)-M1 Cssmax 90% CI (bioequivalence ratio desmetramadol vs tramadol)” value is recorded as “.88–1.13”; the “(+)-M1 Cssmin 90% CI (bioequivalence ratio desmetramadol vs tramadol)” value was “.85–1.08”; the “(−)-M1 Cssmax 90% CI (bioequivalence ratio desmetramadol vs tramadol)” value was “.67-.76”. Further, the “(−)-M1 Cssmin 90% CI (bioequivalence ratio desmetramadol vs tramadol)” value in data set [4] (trial A) is given as “.69-.76”. Also, in data set [4] (trial A, CYP2D6 poor metabolizer), the “mean (+)-M1 in the poor metabolizer” value is 41 ng/mL. In data set [4] (trial A, CYP2D6 ultrarapid metabolizer), the “mean (+)-M1 in the ultrarapid metabolizer” value is 22 ng/mL. In [4] (trial A, poor metabolizer), the “increase of mean desmetramadol (+)-M1 compared with tramadol (+)-M1” value is listed as 650%. Moreover, the “decrease of mean desmetramadol (+)-M1 compared with tramadol (+)-M1” value in data set [4] (trial A, ultrarapid metabolizer) is recorded as 40%. In addition, in data set [4] (setting [10]), the “(+)-M1 Cssmax 90% CI (bioequivalence ratio desmetramadol vs tramadol)” value is recorded as “.88 −1.13”, the “(+)-M1 Cssmin 90% CI (bioequivalence ratio desmetramadol vs tramadol)” value is given as “.85−1.08”, the “(−)-M1 Cssmax 90% CI (bioequivalence ratio desmetramadol vs tramadol)” value is on record as “.67 −.76” and the “(−)-M1 Cssmin 90% CI (bioequivalence ratio desmetramadol vs tramadol)” value is reported as “.69−.76”. In data set [4] (trial B (with paroxetine)), the “desmetramadol (+)-M1 Cssmin and Cssmax exceed corresponding tramadol values” is recorded as 3.5 fold; the “(+)-M1 Cssmax 90% CI (bioequivalence ratio desmetramadol vs tramadol)” value was 3.4–4.3; the “(+)-M1 Cssmin 90% CI (bioequivalence ratio desmetramadol vs tramadol)” value is 3.4–4.3; the “(−)-M1 Cssmax 90% CI (bioequivalence ratio desmetramadol vs tramadol)” value is “.93–1.07”. For the same compound, in data set [4] (trial B (with paroxetine)), the “(−)-M1 Cssmin 90% CI (bioequivalence ratio desmetramadol vs tramadol)” value is given as “.95–1.09”. Further, the “increase of steady-state (−)-M1 by paroxetine” value in [4] (trial B vs trial A) is given as “approximately 15%”. Further, the “increase of plasma (+)-M1 by paroxetine” value in data set [4] (trial B vs trial A, steady state) is reported as “approximately 40%”. For the same compound, the “average duration of tolerance to pain” value in the data set on cold-induced pain (trial A) was 63 s. Further, the “tolerance to pain, mean paired increase relative to placebo” value in the data set on cold-induced pain (trial A, mean [SE]) is 12.6 [3.8] seconds. In addition, the “pain tolerated longer after desmetramadol than after tramadol” value in the data set with cold-induced pain (trial B (with paroxetine), male participants) was found to be 44%. In addition, the “tolerance to pain, mean paired increase relative to placebo” value with cold-induced pain (trial B (with paroxetine), male participants, mean [SE]) was 9.9 [1.9] seconds. Moreover, the “change in paired cold-induced pain scores at 30 seconds compared with placebo” value with cold-induced pain (trial B (with paroxetine), male population n = 42, mean [SE]) was “−.75 [.28] 0−10 VAS”. Further, in the data set on healthy participants [5] (trial A), the Deaths was 0(0) n (%), the “Severe AEs” value was 0 (0) n (%) and the “participants reporting drug-related AEs” value is given as 44%. In the data set with healthy participants [5] (trial A, all), the Dizziness was 6(14) n (%), the Euphoria is 0 (0) n (%), the Feel abnormal is recorded as 0 (0) n (%) and the Feel hot was 0 (0) n (%). In addition, in the data set on healthy participants [5] (trial A, all), the Headache is 3 (7) n (%), the Nausea is 8(19) n (%), the Presyncope is 0 (0) n (%) and the Pruritus is listed as 3 (7) n (%). In addition, in the data set on healthy participants [5] (trial A, all), the Somnolence is 3 (7) n (%), the Spasticity is reported as 0 (0) n (%), the Sweating is on record as 0 (0) n (%) and the Vomiting was 1 (2) n (%). In the data set with healthy participants [5] (trial A, male), the Dizziness is listed as 6(14) n (%), the Euphoria was 0 (0) n (%), the Feel abnormal was 0 (0) n (%) and the Feel hot is listed as 0 (0) n (%). Moreover, in the data set with healthy participants [5] (trial A, male), the Headache is 3 (7) n (%), the Nausea is reported as 8(19) n (%), the Presyncope is 0 (0) n (%) and the Pruritus is recorded as 3 (7) n (%). Besides, in the data set on healthy participants [5] (trial A, male), the Somnolence is recorded as 3 (7) n (%), the Spasticity is on record as 0 (0) n (%), the Sweating is given as 0 (0) n (%) and the Vomiting is 1 (2) n (%). The “All drug-related AEs” value in the data set on healthy participants [5] (trial A, n = 43 (all male)) is given as 19 (44) n (%). In the data set with healthy participants [5] (trial B), the Deaths is on record as 0 (0) n (%) and the “Severe AEs” value is on record as 0 (0) n (%). The “participants reporting drug-related AEs” value in the data set on healthy participants [5] (trial B (with paroxetine)) was determined as 67%. The “All drug-related AEs” value with healthy participants [5] (trial B (with paroxetine), n = 60) is listed as 40 (67) n (%). In addition, in the data set with healthy participants [5] (trial B, all), the Dizziness was 12 (20) n (%), the Euphoria is listed as 2 (3) n (%), the Feel abnormal was 3 (5) n (%) and the Feel hot is recorded as 3 (5) n (%). For the same compound, in the data set with healthy participants [5] (trial B, all), the Headache is given as 10(17) n (%), the Nausea was 16(27) n (%), the Presyncope is reported as 6(10) n (%) and the Pruritus was 4 (7) n (%). Moreover, in the data set on healthy participants [5] (trial B, all), the Somnolence is given as 10(17) n (%), the Spasticity is recorded as 3 (5) n (%), the Sweating was 2 (3) n (%) and the Vomiting is given as 9(15) n (%). In the data set on healthy participants [5] (trial B, female), the Dizziness is 5 (28) n (%), the Euphoria is reported as 1 (6) n (%), the Feel abnormal was 1 (6) n (%) and the Feel hot is listed as 1 (6) n (%). Also, in the data set with healthy participants [5] (trial B, female), the Headache is on record as 6(33) n (%), the Nausea is reported as 5 (28) n (%), the Presyncope is given as 3(17) n (%) and the Pruritus is reported as 3(17) n (%). In the data set with healthy participants [5] (trial B, female), the Somnolence is reported as 6(33) n (%), the Spasticity was 0 (0) n (%), the Sweating was 0 (0) n (%) and the Vomiting was 3(17) n (%). In the data set with healthy participants [5] (trial B, male), the Dizziness was 7(17) n (%), the Euphoria is 1 (2) n (%), the Feel abnormal was 2 (5) n (%) and the Feel hot is 2 (5) n (%). In addition, in the data set with healthy participants [5] (trial B, male), the Headache is reported as 4(10) n (%), the Nausea is 11 (26) n (%), the Presyncope is listed as 3 (7) n (%) and the Pruritus is given as 1 (2) n (%). In the data set with healthy participants [5] (trial B, male), the Somnolence is on record as 4(10) n (%), the Spasticity is listed as 3 (7) n (%), the Sweating is listed as 2 (5) n (%) and the Vomiting is 6(14) n (%). The “pupil diameter, mean paired reduction compared with placebo” value with pupil diameter (after dosing, mean (SD)) is recorded as −1.1 (.8) mm. In the data set on pupil diameter (n = 43, M (SD)), the “Pupil diameter, after seventh dose” value is 5.1 (1.2) mm and the “Pupil diameter, predose” value was 6.0 (1.1) mm. For the same compound, the “Pupil diameter, predose” value with pupil diameter (n = 43, M (SD), listed as desmetramadol) is 6.0 [1.1] mm. Further, the “Average postdose respiratory rate, mean paired difference versus placebo” value in the data set with healthy participants [6] was “−.30 [.90] min^−1”.

For the compound `COc1ccc2c3c1O[C@H]1C(=O)CC[C@H]4[C@@H](C2)N(C)CC[C@]314` [Hydrocodone, hydrocodone], in [7], the lethal oral dose is reported as 90 mg.

On to `CNCC1CCCCC1(O)c1cccc(O)c1` (stereo not shown) [M5, O,N-didesmethyltramadol], for which the Ki (usually a dissociation constant, usually derived from enzyme kinetics or from competition with a known ligand) at μ-opioid receptor was 100 nM.

With `COc1ccc2c3c1O[C@H]1C(=O)CC[C@@]4(O)[C@@H](C2)N(C)CC[C@]314` [Oxycodone, oxycodone], the lethal oral dose in [7] is given as 40 mg.

As for `CC[C@@H](c1cccc(O)c1)[C@@H](C)CN(C)C` [Tapentadol], in data set [8], the “activity at the serotonin reuptake transporter” value is “no activity”. In data set [9], the Ki is 480 nM.

The record behind these values is publication PMC6790288 (The journal of pain : official journal of the American Pain …, 2019).
